From US8541365B2, “Dendrimeric compounds comprising amino acids, hyperbranched core compound, process for preparation of dendrimeric compounds comprising amino acids and hyperbranched core compound, and use thereof” (Instytut Chemii Organicznej, Polska Akademia Nauk, priority 2008, dated 2013)
Like-named read-outs stand apart in the source and are kept apart here.

Key:
[1] = system: human melanoma cells (MEW 155); conditions: MEW 155 cells, 3 days culture
Description: Human melanoma cells (MEW 155) received from Institute of Oncology were inoculated on Petri dishes (Ø3 cm, Nunc) to the number of about 75 000, suspended in 3 ml of Eagle medium+10% FBS+antibiotics. Immediately after the inoculation, solutions of tested substances were added to the cells (a substance +20 ml PBS) at 0.5 ml per dish. After culturing for 3 days, numbers of cells (all, dead and alive) at each dish were determined with NucleoCounter apparatus (Chemometec).

S. aureus ATTC 43300 = type: cell-based, Staphylococus aureus subsp. aureus; conditions: S. aureus ATTC 43300; microdilution in CAMHB, 18 h at 33° C.
Description: (§1) Titration plates with a, b, d strains were incubated for 18 h at 35° C. under aerobic conditions, and the c strain was incubated for 18 h at 33° C. under aerobic conditions.
c) Staphylococus aureus subsp. aureus ATCC 43300,

P. aeruginosa ATTC 27853 = type: cell-based, Pseudomonas aeruginosa; conditions: P. aeruginosa ATTC 27853; microdilution in CAMHB, 18 h at 35° C.
Description: as §1
a) Pseudomonas aeruginosa ATCC 27853,

E. coli ATTC 25922 = type: cell-based, Escherichia coli; conditions: E. coli ATTC 25922; microdilution in CAMHB, 18 h at 35° C.
Description: as §1
d) Escherichia coli ATCC 25922

S. aureus ATCC 25923 = type: cell-based, Staphylococus aureus subsp. aureus; conditions: S. aureus ATCC 25923; microdilution in CAMHB, 18 h at 35° C.
Description: as §1
b) Staphylococus aureus subsp. aureus ATCC 25923,

| Compound | Minimal inhibitory concentration (MIC) (S. aureus ATTC 43300) [μM/L] | Minimal inhibitory concentration (MIC) (P. aeruginosa ATTC 27853) [μM/L] | Minimal inhibitory concentration (MIC) (E. coli ATTC 25922) [μM/L] | Minimal inhibitory concentration (MIC) (S. aureus ATCC 25923) [μM/L] | also measured |
| --- | --- | --- | --- | --- | --- |
| N[C@@H](CCCCNC(=O)OCc1ccccc1Cl)C(=O)NCCNC(=O)CCN(CCCC(C(=O)Nc1cccnc1)N(CCC(=O)NCCNC(=O)[C@@H](N)CCCCNC(=O)OCc1ccccc1Cl)CCC(=O)NCCNC(=O)[C@@H](N)CCCCNC(=O)OCc1ccccc1Cl)CCC(=O)NCCNC(=O)[C@@H](N)CCCCNC(=O)OCc1ccccc1Cl (some centres unmarked) [Compound 92] | – | – | – | – | Live cells (%) ([1]; concentration 7.14 μMol dm^−3): 97.7% |
| NCCCC[C@H](NC(=O)OCc1ccccc1Cl)C(=O)NCCNC(=O)CCN(CCCC(C(=O)Nc1cccnc1)N(CCC(=O)NCCNC(=O)[C@H](CCCCN)NC(=O)OCc1ccccc1Cl)CCC(=O)NCCNC(=O)[C@H](CCCCN)NC(=O)OCc1ccccc1Cl)CCC(=O)NCCNC(=O)[C@H](CCCCN)NC(=O)OCc1ccccc1Cl (some centres unmarked) [Compound 93] | – | – | – | – | Live cells (%) ([1]; concentration 13.65 μMol dm^−3): 95.8% |
| N[C@@H](CCCCNC(=O)OCc1ccccc1Cl)C(=O)NCCNC(=O)CCN(CCC(=O)NCCNC(=O)[C@@H](N)CCCCNC(=O)OCc1ccccc1Cl)CC[C@@H](C(=O)NCCc1c[nH]c2ccccc12)N(CCC(=O)NCCNC(=O)[C@@H](N)CCCCNC(=O)OCc1ccccc1Cl)CCC(=O)NCCNC(=O)[C@@H](N)CCCCNC(=O)OCc1ccccc1Cl [Compound 95] | 32 | 51 | 32 | 1.88 | – |
| N[C@@H](CCCCNC(=O)OCc1ccccc1Cl)C(=O)NCCNC(=O)CCN(CCC[C@@H](C(=O)NCCc1c[nH]c2ccccc12)N(CCC(=O)NCCNC(=O)[C@@H](N)CCCCNC(=O)OCc1ccccc1Cl)CCC(=O)NCCNC(=O)[C@@H](N)CCCCNC(=O)OCc1ccccc1Cl)CCC(=O)NCCNC(=O)[C@@H](N)CCCCNC(=O)OCc1ccccc1Cl [Compound 97] | 20.4 | 60 | 7.9 | 0.93 | – |
| N[C@@H](CCCCNC(=O)OCc1ccccc1Cl)C(=O)NCCNC(=O)CCN(CCC(=O)NCCNC(=O)[C@@H](N)CCCCNC(=O)OCc1ccccc1Cl)C[C@@H](C(=O)NCCc1c[nH]c2ccccc12)N(CCC(=O)NCCNC(=O)[C@@H](N)CCCCNC(=O)OCc1ccccc1Cl)CCC(=O)NCCNC(=O)[C@@H](N)CCCCNC(=O)OCc1ccccc1Cl [Compound 99] | 3.32 | 52 | 7.0 | 0.6 | – |
| N[C@@H](CCCCNC(=O)OCc1ccccc1Cl)C(=O)NCCNC(=O)CCN(CCCC[C@@H](C(=O)NCCc1c[nH]c2ccccc12)N(CCC(=O)NCCNC(=O)[C@@H](N)CCCCNC(=O)OCc1ccccc1Cl)CCC(=O)NCCNC(=O)[C@@H](N)CCCCNC(=O)OCc1ccccc1Cl)CCC(=O)NCCNC(=O)[C@@H](N)CCCCNC(=O)OCc1ccccc1Cl [Compound 101] | 10.0 | 51 | 12.0 | 0.93 | – |
| NCCCC[C@H](NC(=O)OCc1ccccc1Cl)C(=O)NCCNC(=O)CCN(CCC[C@@H](C(=O)NCCc1c[nH]cn1)N(CCC(=O)NCCNC(=O)[C@H](CCCCN)NC(=O)OCc1ccccc1Cl)CCC(=O)NCCNC(=O)[C@H](CCCCN)NC(=O)OCc1ccccc1Cl)CCC(=O)NCCNC(=O)[C@H](CCCCN)NC(=O)OCc1ccccc1Cl [Compound 107] | – | – | – | – | Live cells (%) ([1]; concentration 47.1 μMol dm^−3): 91.1% |
| N[C@@H](CCCCNC(=O)OCc1ccccc1Cl)C(=O)NCCNC(=O)CCN(CCC[C@@H](C(=O)NCCc1c[nH]cn1)N(CCC(=O)NCCNC(=O)[C@@H](N)CCCCNC(=O)OCc1ccccc1Cl)CCC(=O)NCCNC(=O)[C@@H](N)CCCCNC(=O)OCc1ccccc1Cl)CCC(=O)NCCNC(=O)[C@@H](N)CCCCNC(=O)OCc1ccccc1Cl [Compound 108] | – | – | – | – | Live cells (%) ([1]; concentration 42.1 μMol dm^−3): 94.9% |
